# Assay results taken from patent publication US10604535B2, “Compounds, compositions and methods” (Denali Therapeutics Inc., priority 2016, dated 2020).
# How the values were obtained:
# GST-hRIPK1 (8-327) = GST-hRIPK1 (8-327) (Homo sapiens (Human), UniProt Q13546); assay: Fluorescent Polarization Binding (FP Binding) assay
# [1] = system: human cryopreserved hepatocytes; assay: Metabolic stability (hepatocytes); conditions: human cryopreserved hepatocytes
# Procedure: The metabolic stability of compounds was evaluated in human cryopreserved hepatocytes (BioreclamationlVT, NY, USA) in duplicate. Test articles (or controls) were added to a 24-well incubation plate (Becton Dickinson Labware, USA) containing 0.5×10^6 hepatocytes/mL in suspension. The plate was held at 37° C. and agitated with constant orbital shaking (orbital speed at 350 rpm). At each time point (0, 5, 10, 15, 20, 30, 45, 60, 90, 120, 150 and 180 min) a Tecan Evo robot aspirated 50 μL of the incubation mixture and 100 μL of acetonitrile containing internal standard to quench the reaction. […] Samples were centrifuged (3000 rpm for 10 minutes) and the plate sealed prior to injection onto an LC-MS/MS system.
# The appropriate parent/daughter ions were monitored for the test article and IS with the LC-MS/MS system. The intrinsic clearance (Clint; expressed μL/min/million cells) was determined from the first order elimination constant (k, min^−1) of test article decay and the volume of the incubation. […] The intrinsic organ CL was then converted to the hepatic clearance (CLhep) using the well-stirred model as shown below, where Qh is human hepatic blood flow.
# Hepatic clearance is expressed as mL/min/kg. The hepatic clearance relates to the flow of blood through the liver that is completely cleared of the compound.
# [2] = system: FADD-deficient Jurkat cells; assay: Cellular necroptosis assay (human TNFα-induced necrosis, CellTiter-Glo); format: cell-based; conditions: Homo sapiens, Jurkat, 48 h, TNFα 10 ng/mL, read-out: Cell IC50
# Chain of GST-hRIPK1 (8-327) (Q13546 8-327): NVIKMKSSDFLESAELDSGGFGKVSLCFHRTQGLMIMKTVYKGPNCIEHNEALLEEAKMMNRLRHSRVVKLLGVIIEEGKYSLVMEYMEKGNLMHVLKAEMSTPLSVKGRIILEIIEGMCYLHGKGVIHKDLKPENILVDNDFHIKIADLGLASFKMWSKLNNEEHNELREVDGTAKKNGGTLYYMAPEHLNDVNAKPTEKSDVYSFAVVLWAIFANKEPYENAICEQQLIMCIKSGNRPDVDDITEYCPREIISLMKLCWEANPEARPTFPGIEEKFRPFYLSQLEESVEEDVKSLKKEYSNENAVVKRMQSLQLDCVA
Structure (SMILES),IC50 (GST-hRIPK1 (8-327)),Human hepatocyte CLhep Avg [1],IC50 [2]
"CN1C(=O)[C@@H](NC(=O)c2cn(Cc3ccccc3)nn2)[C@H]2C[C@H]2c2nccnc21 [Example 195, 1-benzyl-N-((7S,7aS,8aR)-5-methyl-6-oxo-5,6,7,7a,8,8a-hexahydrocyclopropa[d]pyrazino[2,3-b]azepin-7-yl)-1H-1,2,3-triazole-4-carboxamide]",0.1 to 1000 nM,7.1 mL/min/kg,
"CN1C(=O)[C@@H](NC(=O)c2cc(Cc3ccccc3)on2)[C@H]2C[C@H]2c2nccnc21 [Example 197, 5-benzyl-N-((7S,7aS,8aR)-5-methyl-6-oxo-5,6,7,7a,8,8a-hexahydrocyclopropa[d]pyrazino[2,3-b]azepin-7-yl)isoxazole-3-carboxamide]",0.1 to 1000 nM,13 mL/min/kg,
"CN1C(=O)[C@@H](NC(=O)c2cc(C3(c4ccccc4)CC3)on2)COc2cccnc21 [Example 77, (S)—N-(5-methyl-4-oxo-2,3,4,5-tetrahydropyrido[3,2-b][1,4]oxazepin-3-yl)-5-(1-phenylcyclopropyl)isoxazole-3-carboxamide]",,19 mL/min/kg,
"CN1C(=O)[C@@H](NC(=O)c2nnc(Cc3ccccc3)s2)[C@H]2C[C@H]2c2nccnc21 [Example 198, 5-benzyl-N-((7S,7aS,8aR)-5-methyl-6-oxo-5,6,7,7a,8,8a-hexahydrocyclopropa[d]pyrazino[2,3-b]azepin-7-yl)-1,3,4-thiadiazole-2-carboxamide]",0.1 to 1000 nM,8.5 mL/min/kg,
"CN1C(=O)[C@@H](NC(=O)c2nn(Cc3ccccc3F)cc2F)COc2cccnc21 [Example 133, (S)-4-Fluoro-1-(2-fluorobenzyl)-N-(5-methyl-4-oxo-2,3,4,5-tetrahydropyrido[3,2-b][1,4]oxazepin-3-yl)-1H-pyrazole-3-carboxamide]",0.1 to 1000 nM,,0.1 to 1000 nM
"O=C(NC1COc2cccnc2-n2ccnc21)c1nn(Cc2ccccc2)cc1F (stereo in doubt) [Example 154B, (S)-1-benzyl-N-(6,7-dihydroimidazo[1,2-d]pyrido[3,2-b][1,4]oxazepin-7-yl)-4-fluoro-1H-pyrazole-3-carboxamide]",0.1 to 1000 nM,,0.1 to 1000 nM
"CN1C(=O)[C@@H](NC(=O)c2ncc(Cc3cccc(C#N)c3)s2)COc2ccccc21 [Example 164, (S)-5-(3-cyanobenzyl)-N-(5-methyl-4-oxo-2,3,4,5-tetrahydrobenzo[b][1,4]oxazepin-3-yl)thiazole-2-carboxamide]",0.1 to 1000 nM,,0.1 to 1000 nM
"CN1C(=O)[C@@H](NC(=O)c2nn(Cc3cncc(F)c3)cc2F)COc2cccnc21 [Example 137, (S)-4-Fluoro-1-((5-fluoropyridin-3-yl)methyl)-N-(5-methyl-4-oxo-2,3,4,5-tetrahydropyrido[3,2-b][1,4]oxazepin-3-yl)-1H-pyrazole-3-carboxamide]",0.1 to 1000 nM,,0.1 to 1000 nM
"C[C@H]1Oc2cccnc2N(C)C(=O)[C@H]1NC(=O)c1ncn(Cc2ccccc2)n1 [Example 136, 1-Benzyl-N-((2R,3S)-2,5-dimethyl-4-oxo-2,3,4,5-tetrahydropyrido[3,2-b][1,4]oxazepin-3-yl)-1H-1,2,4-triazole-3-carboxamide]",0.1 to 1000 nM,,0.1 to 1000 nM

# Now from value to molecule, other results behind:
IC50 (GST-hRIPK1 (8-327)),Human hepatocyte CLhep Avg [1],Structure (SMILES),IC50 [2]
0.1 to 1000 nM,12 mL/min/kg,"CN1C(=O)[C@@H](NC(=O)c2nnc(Cc3ccccc3)o2)CCc2cccnc21 [Example 148A, (S)-5-benzyl-N-(9-methyl-8-oxo-6,7,8,9-tetrahydro-5H-pyrido[2,3-b]azepin-7-yl)-1,3,4-oxadiazole-2-carboxamide]",
0.1 to 1000 nM,16 mL/min/kg,"CN1C(=O)[C@@H](NC(=O)c2cc(Cc3ccccc3)on2)COc2cccnc21 [Example 142, (S)-5-Benzyl-N-(5-methyl-4-oxo-2,3,4,5-tetrahydropyrido[3,2-b][1,4]oxazepin-3-yl)isoxazole-3-carboxamide]",
0.1 to 1000 nM,0 mL/min/kg,"CN1C(=O)[C@@H](NC(=O)c2nnc(Cc3cccc(C#N)c3)[nH]2)COc2ccccc21 [Example 163, (S)-5-(3-cyanobenzyl)-N-(5-methyl-4-oxo-2,3,4,5-tetrahydrobenzo[b][1,4]oxazepin-3-yl)-4H-1,2,4-triazole-3-carboxamide]",
0.1 to 1000 nM,,"C[C@H]1Oc2cc(C#N)cnc2N(C)C(=O)[C@H]1NC(=O)c1nnc(Cc2ccccc2)[nH]1 [Example 150, 5-benzyl-N-((2R,3S)-8-cyano-2,5-dimethyl-4-oxo-2,3,4,5-tetrahydropyrido[3,2-b][1,4]oxazepin-3-yl)-4H-1,2,4-triazole-3-carboxamide]",0.1 to 1000 nM
0.1 to 1000 nM,,"O=C(N[C@H]1CC2(CC2)c2cc(F)cc(F)c2NC1=O)c1nnc(Cc2ccccc2)[nH]1 [Example 103B, (S)-5-benzyl-N-(7,9-difluoro-2-oxo-1,2,3,4-tetrahydrospiro[benzo[b]azepine-5,1′-cyclopropan]-3-yl)-4H-1,2,4-triazole-3-carboxamide]",0.1 to 1000 nM
0.1 to 1000 nM,,"Cc1c(Cl)c(C(=O)N[C@H]2COc3ccccc3N(C)C2=O)nn1Cc1ccccc1 [Example 4, (S)-1-benzyl-4-chloro-5-methyl-N-(5-methyl-4-oxo-2,3,4,5-tetrahydrobenzo[b][1,4]oxazepin-3-yl)-1H-pyrazole-3-carboxamide]",0.1 to 1000 nM
0.1 to 1000 nM,,"O=C(N[C@@H]1C(=O)Nc2ncccc2[C@@H]2C[C@H]12)c1nnc(Cc2ccccc2)[nH]1 [Example 110B, 5-benzyl-N-((1aS,2S,8bR)-3-oxo-1,1a,2,3,4,8b-hexahydrocyclopropa[d]pyrido[2,3-b]azepin-2-yl)-4H-1H-1,2,4-triazole-3-carboxamide]",0.1 to 1000 nM
0.1 to 1000 nM,,"CN1C(=O)[C@@H](NC(=O)c2nnc(Cc3ccccc3)[nH]2)COc2cnccc21 [Example 41, (S)-5-benzyl-N-(1-methyl-2-oxo-1,2,3,4-tetrahydropyrido[3,4-b][1,4]oxazepin-3-yl)-4H-1,2,4-triazole-3-carboxamide]",0.1 to 1000 nM
0.1 to 1000 nM,,"Cc1nc2c(s1)CC[C@H](NC(=O)c1nnc(Cc3ccccc3)o1)C(=O)N2C [Example 200, (S)-5-benzyl-N-(2,4-dimethyl-5-oxo-5,6,7,8-tetrahydro-4H-thiazolo[4,5-b]azepin-6-yl)-1,3,4-oxadiazole-2-carboxamide]",0.1 to 1000 nM
0.1 to 1000 nM,,"CN1C(=O)[C@@H](NC(=O)c2nnc(Cc3ccccc3)[nH]2)CC2(CC2)c2cccnc21 [Example 125B, (S)-5-benzyl-N-(9′-methyl-8′-oxo-6′,7′,8′,9′-tetrahydrospiro[cyclopropane-1,5′-pyrido[2,3-b]azepin]-7′-yl)-4H-1,2,4-triazole-3-carboxamide]",0.1 to 1000 nM
1000 to 10000 nM,,"CN1C(=O)[C@@H](NC(=O)c2ncc(C3(c4ccccc4)CC3)[nH]2)COc2cccnc21 [Example 99, (S)—N-(5-methyl-4-oxo-2,3,4,5-tetrahydropyrido[3,2-b][1,4]oxazepin-3-yl)-5-(1-phenylcyclopropyl)-1H-imidazole-2-carboxamide]",0.1 to 1000 nM
0.1 to 1000 nM,,"CN1C(=O)[C@@H](NC(=O)c2nnc(C3(c4ccccc4)CC3)s2)COc2ccccc21 [Example 58, (S)—N-(5-methyl-4-oxo-2,3,4,5-tetrahydrobenzo[b][1,4]oxazepin-3-yl)-5-(1-phenylcyclopropyl)-1,3,4-thiadiazole-2-carboxamide]",0.1 to 1000 nM
